The values that follow come from patent publication US6121330A, “5-Hydroxyalkyl substituted phenyls and their use in medicaments for the treatment of arteriosclerosis and hyperlipoproteinaemia” (Bayer Aktiengesellschaft, priority 1997, dated 2000).

Assay [1] deals with T1, cholesterol ester transfer protein (CETP) (Homo sapiens, UniProt P11597).
T1 construct: CETP is obtained from human plasma in partially purified form by differential centrifugation and column chromatography; from tissue; host or cells: human plasma
T1 sequence (P11597 18-493): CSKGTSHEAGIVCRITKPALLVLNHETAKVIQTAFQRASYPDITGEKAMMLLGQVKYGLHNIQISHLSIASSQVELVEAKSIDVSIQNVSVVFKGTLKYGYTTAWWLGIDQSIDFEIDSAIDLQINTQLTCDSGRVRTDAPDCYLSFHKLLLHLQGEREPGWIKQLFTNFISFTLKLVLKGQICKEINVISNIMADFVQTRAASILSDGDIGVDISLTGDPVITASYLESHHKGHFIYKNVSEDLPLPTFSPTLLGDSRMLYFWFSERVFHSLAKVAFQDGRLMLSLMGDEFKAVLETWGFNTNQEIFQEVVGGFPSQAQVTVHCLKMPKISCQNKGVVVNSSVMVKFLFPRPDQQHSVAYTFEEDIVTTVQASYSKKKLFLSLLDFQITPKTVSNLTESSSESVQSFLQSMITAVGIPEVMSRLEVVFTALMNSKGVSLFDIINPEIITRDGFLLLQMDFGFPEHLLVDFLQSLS
The experiment in a line: CETP inhibition testing (transfer of 3H-cholesterol ester from human HD lipoproteins to biotinylated LD lipoproteins). In kind it is biochemical. Conditions: CETP partially purified from human plasma; 3H-cholesterol ester transfer HDL to biotin-LDL, 37° C., 18 h. The protocol:
CETP is obtained from human plasma in partially purified form by differential centrifugation and column chromatography and used for the test. To this end, human plasma is adjusted to a density of 1.21 g per ml using NaBr and centrifuged at 4° C. for 18 h at 50,000 rpm. The bottom fraction (d>1.21 g/ml) is applied to a Sephadex®phenyl-sepharose 4B (Pharmacia) column, washed with 0.15 M NaCl/0.001 M trisHCl pH 7.4 and then eluted with distilled water. The CETP-active fractions are pooled, dialyzed against 50 mM Na acetate pH 4.5 and applied to a CM-Sepharose® (Pharmacia) column. The column is then eluted using a linear gradient (0-1 M NaCl). The pooled CETP fractions are dialyzed against 10 mM tris HCl pH 7.4 and then further purified by chromatography on a Mono Q® column (Pharmacia).
Obtainment of Radiolabelled HDL
50 ml of fresh human EDTA plasma is adjusted to a density of 1.12 using NaBr and centrifuged at 50,000 rpm for 18 h at 4° C. in a Ty 65 rotor. The upper phase is used to obtain cold LDL. The lower phase is dialyzed against 3×4 l of PDB buffer (10 mM tris/HCl pH 7.4, […], 1 mM EDTA, 0.02% NaN3). 20 μl of 3H-cholesterol (Dupont NET-725; 1 μC/μl dissolved in ethanol!) are then added per 10 ml of retentate volume and the mixture is incubated under N2 at 37° C. for 72 h. […]
To test the CETP activity, the transfer of ^3 H-cholesterol ester from human HD lipoproteins to biotinylated LD lipoproteins is measured.
The reaction is ended by addition of streptavidin-SPA® beads (Amersham) and the transferred radioactivity is determined directly in a liquid scintillation counter.
In the test mixture, 10 μl of HDL-^3 H-cholesterol ester (~50,000 cpm) are incubated at 37° C. for 18 h with 10 μl of biotin-LDL (Amersham) in 50 mM Hepes/0.15 M NaCl/0.1% bovine serum albumin/0.05% NaN3 pH 7.4 with 10 μl of CETP (1 mg/ml) and 3 μl of solution of the substance to be tested dissolved (in 10% DMSO/1% RSA). 200 μl of the SPA-streptavidin bead solution (TRKQ 7005) are then added, the mixture is incubated further for 1 h with shaking and then measured in the scintillation counter. […]

The subject of another assay is HDL cholesterol. Briefly: HDL rise in in vivo experiments (oral administration). The arrangement: species or system Syrian golden hamster. Conditions: oral (stomach tube), 2 × 30 mg/kg/d. The protocol:
In Vivo Activity of the Compounds According to the Invention
In experiments to determine the oral action on lipoproteins and triglycerides, test substance dissolved in DMSO and 0.5% Tylose suspended by means of a stomach tube are administered orally to Syrian golder hamsters from in-house breeding. To determine the CETP activity, blood (about 250 μl) is taken by retroorbital puncture before the start of the experiment. The test substances are then administered orally by means of a stomach tube. The control animals receive identical volumes of solvent without test substance. […]
Clotting is ended by incubation at 4° C. overnight, then centrifugation at 6000×g is carried out for 10 minutes. In the serum thus obtained, the content of cholesterol and triglycerides is determined with the aid of modified commercially available enzyme tests (cholesterol enzymatic 14366 Merck, triglycerides 14364 Merck). […]
100 μl of serum dilution are mixed with 100 μl of […] in 96-hole plates and incubated at room temperature for 10 minutes. The optical density is then determined at a wavelength of 492 nm using an automatic plate-reading apparatus. The triglyceride or cholesterol concentration contained in the samples is determined with the aid of a standard curve measured in parallel. […]

What is called IC50 is the concentration that inhibits the measured activity by half. Read a low IC50 as higher potency. In turn, `OCc1c(-c2ccc(F)cc2)cc(C2CCCC2)c(C(F)c2ccc(C(F)(F)F)cc2)c1-c1ccc(F)cc1` (stereo not shown) [Example 1] returned an IC50 in assay [1] of 90 nM.
The compound `CC(C)c1cc(-c2ccc(F)cc2)c(CO)c(-c2ccc(F)cc2)c1C(F)c1ccc(C(F)(F)F)cc1` (stereo not shown) [Example 3] had a half-maximal inhibitory concentration (IC50) in assay [1] of 100 nM. The “% HDL rise” value with HDL cholesterol stood at 21%.
`CC(C)c1cc(-c2ccc(F)cc2)c(CO)c(-c2ccc(F)cc2)c1C(=O)c1ccc(C(F)(F)F)cc1` [Example 4] came in with an IC50 in assay [1] of 4000 nM.
